Laboratory results taken from patent US6723753B2, “Substituted n-benzyl-n-phenyl aminoalcohol compounds useful for inhibiting cholesteryl ester transfer protein activity” (Pharmacia Corporation, priority 2002, dated 2004).

The molecules below were run against T1, CETP (Homo sapiens, UniProt P11597) (assay: Assay of CETP Inhibition using Purified Components (Reconstituted Buffer Assay)). Settings: IC50, Inhibition of CETP activity in reconstituted buffer assay; transfer of [3H]CE from HDL to LDL.
T1 sequence (P11597 18-493): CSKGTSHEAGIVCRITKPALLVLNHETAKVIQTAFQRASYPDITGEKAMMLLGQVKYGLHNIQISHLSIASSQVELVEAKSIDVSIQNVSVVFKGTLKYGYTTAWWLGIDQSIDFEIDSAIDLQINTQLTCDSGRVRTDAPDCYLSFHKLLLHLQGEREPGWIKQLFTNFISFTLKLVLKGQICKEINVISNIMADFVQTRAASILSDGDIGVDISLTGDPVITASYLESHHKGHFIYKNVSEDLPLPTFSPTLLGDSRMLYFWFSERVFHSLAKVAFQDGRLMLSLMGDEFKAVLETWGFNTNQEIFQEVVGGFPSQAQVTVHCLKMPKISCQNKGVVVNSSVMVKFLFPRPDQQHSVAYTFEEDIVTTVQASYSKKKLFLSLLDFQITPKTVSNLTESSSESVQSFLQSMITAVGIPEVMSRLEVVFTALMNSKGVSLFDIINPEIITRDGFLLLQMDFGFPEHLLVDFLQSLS
Type: biochemical
Set-up: made in house; host or cells: CHO cells (serum-free conditioned medium)
Procedure: Assay of CETP Inhibition using Purified Components (Reconstituted Buffer Assay)
The ability of compounds to inhibit CETP activity was assessed using an in vitro assay that measured the rate of transfer of radiolabeled cholesteryl ester ([^3H]CE) from HDL donor particles to LDL acceptor particles. Details of the assay are provided by Glenn, K. C. et al. (Glenn and Melton, “Quantification of Cholesteryl Ester Transfer Protein (CETP): A) CETP Activity and B) Immunochemical Assay of CETP Protein,” Meth. Enzymol., 263, 339-351 (1996)). Human recombinant CETP can be obtained from the serum-free conditioned medium of CHO cells transfected with a cDNA for CETP and purified as described by Wang, S. et al. (J. Biol. Chem. 267, 17487-17490 (1992)). To measure CETP activity, [^3H]CE-labeled-HDL, LDL, CETP and assay buffer (50 mM tris(hydroxymethyl)aminomethane, pH 7.4; 150 mM sodium chloride; 2 mM ethylenediamine-tetraacetic acid (EDTA); 1% bovine serum albumin) were incubated in a final volume of 200 μL, for 2 hours at 37° C. in 96 well plates. […] The inhibitors were then diluted 1:1 with CETP in assay buffer, and then 25 μL of that solution was mixed with 175 μL of lipoprotein pool for assay. Following incubation, LDL was differentially precipitated by the addition of 50 μL of 1% (w/v) dextran sulfate/0.5 M magnesium chloride, mixed by vortex, and incubated at room temperature for 10 minutes. A potion of the solution (200 μL) was transferred to a filter plate (Millipore). After filtration, the radioactivity present in the precipitated LDL was measured by liquid scintillation counting.
This value was defined as the IC50.
Examples of IC50 values determined by these methods are specified in Table 9.

`OC(CN(Cc1cccc(OC(F)(F)F)c1)c1ccc(Oc2ccccc2)cc1)C(F)(F)F` (stereo not shown) [Example 133] showed an IC50 of 25 µM.

Same assay, conditions: Inhibition of CETP activity in reconstituted buffer assay; transfer of [3H]CE from HDL to LDL; read-out: IC50

`OC(CN(Cc1ccc(OCc2ccccc2)c(OCc2ccccc2)c1)c1cccc(OC(F)(F)F)c1)C(F)(F)F` (stereo not shown) [Example 100] and `OC(CN(Cc1cc(OCc2ccccc2)cc(OCc2ccccc2)c1)c1cccc(OC(F)(F)F)c1)C(F)(F)F` (stereo not shown) [Example 107] are within 1.5-fold of each other in IC50: 90 µM for the first, 75 µM for the second.

Compared with `CCOc1cccc(CN(CC(O)C(F)(F)F)c2cccc(OC(F)(F)F)c2)c1` (stereo not shown) [Example 101], `COc1cccc(CN(CC(O)C(F)(F)F)c2cccc(OC(F)(F)F)c2)c1` (stereo not shown) [Example 121] is higher in IC50: 6 µM for the first, over 100 µM for the second.

Compared with `CC(=O)Oc1cccc(CN(CC(O)C(F)(F)F)c2cccc(OC(F)(F)F)c2)c1` (stereo not shown) [Example 102], `COc1cccc(N(Cc2cccc(OC(F)(F)F)c2)CC(O)C(F)(F)F)c1` (stereo not shown) [Example 124] is 7.5-fold lower in IC50: 60 µM for the first, 8 µM for the second.

First: OCCOc1cccc(CN(CC(O)C(F)(F)F)c2cccc(OC(F)(F)F)c2)c1 (stereo not shown) [Example 103]
Second: N#Cc1cccc(N(Cc2cccc(OC(F)(F)F)c2)CC(O)C(F)(F)F)c1 (stereo not shown) [Example 162]
The IC50 of the first is 5-fold higher: 35 µM for the first, 7 µM for the second.

Going from `OC(CN(Cc1ccc2c(c1)OCCO2)c1cccc(OC(F)(F)F)c1)C(F)(F)F` (stereo not shown) [Example 105] to `OC(CN(Cc1cccc(OC(F)(F)F)c1)c1ccc2c(c1)OCCCO2)C(F)(F)F` (stereo not shown) [Example 139], the IC50 falls from 35 µM to 8 µM (4.4-fold). The second is the more potent here.

`COc1cc(CN(CC(O)C(F)(F)F)c2cccc(OC(F)(F)F)c2)ccc1OCc1ccccc1` (stereo not shown) [Example 106] and `COc1ccc(CN(CC(O)C(F)(F)F)c2cccc(OC(F)(F)F)c2)cc1OC` (stereo not shown) [Example 116] are within 1.5-fold of each other in IC50: 30 µM for the first, 40 µM for the second.

`OC(CN(Cc1cccc(Oc2cccc(C(F)(F)F)c2)c1)c1cccc(C(F)(F)F)c1)C(F)(F)F` (stereo not shown) [Example 108] and `OC(CN(Cc1cccc(Oc2cccc(C(F)(F)F)c2)c1)c1ccc(C(F)(F)F)cc1)C(F)(F)F` (stereo not shown) [Example 110] are the same in IC50: 60 µM for the first, 60 µM for the second.

Compared with `OC(CN(Cc1cccc(Oc2ccccc2)c1)c1cccc(C(F)(F)F)c1)C(F)(F)F` (stereo not shown) [Example 109], `OC(CN(Cc1cccc(Oc2ccccc2)c1)c1ccc(C(F)(F)F)cc1)C(F)(F)F` (stereo not shown) [Example 111] is 2.6-fold higher in IC50: 25 µM for the first, 65 µM for the second.

`O=[N+]([O-])c1cccc(CN(CC(O)C(F)(F)F)c2cccc(Oc3ccccc3)c2)c1` (stereo not shown) [Example 113] and `O=[N+]([O-])c1ccc(CN(CC(O)C(F)(F)F)c2cccc(Oc3ccccc3)c2)cc1` (stereo not shown) [Example 148] are within 1.5-fold of each other in IC50: 20 µM for the first, 15 µM for the second.

Compared with `OC(CN(Cc1cccc(Oc2cc(Cl)cc(Cl)c2)c1)c1cccc(Oc2ccccc2)c1)C(F)(F)F` (stereo not shown) [Example 114], `COc1ccc(Oc2cccc(CN(CC(O)C(F)(F)F)c3cccc(Oc4ccccc4)c3)c2)cc1` (stereo not shown) [Example 161] is higher in IC50: 40 µM for the first, over 100 µM for the second. The first is the more potent here.

`CCOc1cc(CN(CC(O)C(F)(F)F)c2cccc(OC(F)(F)F)c2)ccc1OC` (stereo not shown) [Example 117] and `CCOc1ccc(CN(CC(O)C(F)(F)F)c2cccc(OC(F)(F)F)c2)cc1OCC` (stereo not shown) [Example 138] are within 1.5-fold of each other in IC50: 25 µM for the first, 30 µM for the second.

Compared with `CC(=O)Oc1ccc(CN(CC(O)C(F)(F)F)c2cccc(OC(F)(F)F)c2)cc1OC(C)=O` (stereo not shown) [Example 118], `COc1cc(CN(CC(O)C(F)(F)F)c2cccc(OC(F)(F)F)c2)ccc1OC(C)=O` (stereo not shown) [Example 119] is 1.6-fold higher in IC50: 45 µM for the first, 70 µM for the second. The first is the more potent here.

Going from `COc1ccc(CN(CC(O)C(F)(F)F)c2cccc(OC(F)(F)F)c2)cc1` (stereo not shown) [Example 122] to `CCOc1ccc(CN(CC(O)C(F)(F)F)c2cccc(OC(F)(F)F)c2)cc1` (stereo not shown) [Example 158], the IC50 rises from 8 µM to 12 µM (1.5-fold). The first is the more potent here.

Going from `COc1cccc(CN(CC(O)C(F)(F)F)c2cccc(OC)c2)c1` (stereo not shown) [Example 123] to `COc1ccc(N(Cc2cccc(OC(F)(F)F)c2)CC(O)C(F)(F)F)cc1OC` (stereo not shown) [Example 132], the IC50 falls from 90 µM to 25 µM (3.6-fold).

`CCCOc1ccc(CN(CC(O)C(F)(F)F)c2cccc(OC(F)(F)F)c2)cc1` (stereo not shown) [Example 125] and `CCCCOc1ccc(N(Cc2cccc(OC(F)(F)F)c2)CC(O)C(F)(F)F)cc1` (stereo not shown) [Example 135] are within 1.5-fold of each other in IC50: 25 µM for the first, 20 µM for the second.

Going from `OC(CN(Cc1cccc(OC(F)(F)F)c1)c1ccc2c(c1)OCO2)C(F)(F)F` (stereo not shown) [Example 129] to `OC(CN(Cc1cccc(Oc2ccccc2)c1)c1ccc2c(c1)OCO2)C(F)(F)F` (stereo not shown) [Example 130], the IC50 rises from 9 µM to 80 µM (8.9-fold).

First: OC(CN(Cc1cccc(OC(F)(F)F)c1)c1ccc(OC(F)(F)F)cc1)C(F)(F)F (stereo not shown) [Example 134]
Second: N#Cc1ccc(N(Cc2cccc(OC(F)(F)F)c2)CC(O)C(F)(F)F)cc1 (stereo not shown) [Example 163]
The IC50 of the first is 1.7-fold lower: 6 µM for the first, 10 µM for the second. The first is the more potent here.

First: OC(CN(Cc1cccc(OC(F)(F)F)c1)c1ccc(Cc2ccccc2)cc1)C(F)(F)F (stereo not shown) [Example 136]
Second: OC(CN(Cc1ccc(Oc2ccccc2)cc1)c1cccc(OC(F)(F)F)c1)C(F)(F)F (stereo not shown) [Example 152]
The IC50 of the first is 1.5-fold higher: 12 µM for the first, 8 µM for the second. The second is the more potent here.

First: OC(CN(Cc1ccc2c(c1)OCCO2)c1cccc(Oc2ccccc2)c1)C(F)(F)F (stereo not shown) [Example 137]
Second: N#Cc1cccc(CN(CC(O)C(F)(F)F)c2cccc(Oc3ccccc3)c2)c1 (stereo not shown) [Example 147]
The IC50 of the first is 2.5-fold higher: 20 µM for the first, 8 µM for the second. The second is the more potent here.

First: N#Cc1cccc(N(Cc2ccc(C(F)(F)F)cc2)CC(O)C(F)(F)F)c1 (stereo not shown) [Example 142]
Second: OC(CN(Cc1ccc(-c2ccccc2)cc1)c1cccc(C(F)(F)F)c1)C(F)(F)F (stereo not shown) [Example 143]
The IC50 of the first is 2-fold lower: 40 µM for the first, 80 µM for the second.

Going from `OC(CN(Cc1cc(C(F)(F)F)cc(C(F)(F)F)c1)c1cccc(Oc2ccccc2)c1)C(F)(F)F` (stereo not shown) [Example 145] to `N#Cc1ccc(CN(CC(O)C(F)(F)F)c2cccc(Oc3ccccc3)c2)cc1` (stereo not shown) [Example 146], the IC50 falls from 15 µM to 10 µM (1.5-fold). The second is the more potent here.

Compared with `OC(CN(Cc1cccc(Oc2ccccc2)c1)c1ccc(Oc2ccccc2)cc1)C(F)(F)F` (stereo not shown) [Example 151], `OC(CN(Cc1ccc(Oc2ccccc2)cc1)c1cccc(Oc2ccccc2)c1)C(F)(F)F` (stereo not shown) [Example 153] is lower in IC50: over 100 µM for the first, 4 µM for the second. The second is the more potent here.

Compared with `OC(CN(Cc1ccc(Oc2ccccc2)cc1)c1ccc(Oc2ccccc2)cc1)C(F)(F)F` (stereo not shown) [Example 154], `OC(CN(Cc1cccc(Oc2ccccc2)c1)c1ccc(Oc2ccc(Cl)cc2)cc1)C(F)(F)F` (stereo not shown) [Example 165] is lower in IC50: over 100 µM for the first, 90 µM for the second.

`OC(CN(Cc1ccc(OC(F)(F)F)cc1)c1ccc(Oc2ccccc2)cc1)C(F)(F)F` (stereo not shown) [Example 155] and `COC(=O)c1ccc(CN(CC(O)C(F)(F)F)c2cccc(Oc3ccccc3)c2)cc1` (stereo not shown) [Example 157] cannot be ordered by IC50: over 100 µM for the first, over 100 µM for the second.

Going from `CS(=O)(=O)c1ccc(CN(CC(O)C(F)(F)F)c2cccc(Oc3ccccc3)c2)cc1` (stereo not shown) [Example 156] to `CC(c1cccc(F)c1)N(CC(O)C(F)(F)F)c1cccc(Oc2ccccc2)c1` (stereo not shown) [Example 203], the IC50 rises from 40 µM to 60 µM (1.5-fold). The first is the more potent here.

Compared with `COc1ccc(N(Cc2cccc(OC(F)(F)F)c2)CC(O)C(F)(F)F)cc1OC1CCCC1` (stereo not shown) [Example 159], `COc1cc(N(Cc2cccc(OC(F)(F)F)c2)CC(O)C(F)(F)F)cc(OC)c1OC` (stereo not shown) [Example 160] is 5.7-fold higher in IC50: 3.5 µM for the first, 20 µM for the second. The first is the more potent here.

Going from `N#Cc1ccc(-c2ccc(N(Cc3cccc(OC(F)(F)F)c3)CC(O)C(F)(F)F)cc2)cc1` (stereo not shown) [Example 167] to `OC(CN(Cc1cccc(OC(F)(F)C(F)F)c1)c1ccc2c(c1)oc1ccccc12)C(F)(F)F` (stereo not shown) [Example 207], the IC50 rises from 2 µM to 90 µM (45-fold). The first is the more potent here.

`OC(CN(Cc1ccc2c(c1)Cc1ccccc1-2)c1cccc(F)c1)C(F)(F)F` (stereo not shown) [Example 199] and `CCOc1cccc(CN(CC(O)COC(F)(F)C(F)F)c2cccc(Oc3ccccc3)c2)c1` (stereo not shown) [Example 213] are within 1.5-fold of each other in IC50: 10 µM for the first, 11 µM for the second.

`CC(c1ccc(C#N)cc1)N(CC(O)C(F)(F)F)c1cccc(Oc2ccccc2)c1` (stereo not shown) [Example 202] and `CC(c1cccc([N+](=O)[O-])c1)N(CC(O)C(F)(F)F)c1cccc(Oc2ccccc2)c1` (stereo not shown) [Example 205] cannot be ordered by IC50: over 100 µM for the first, over 100 µM for the second.

First: CC(c1cccc(OC(F)(F)F)c1)N(CC(O)C(F)(F)F)c1cccc(Oc2ccccc2)c1 (stereo not shown) [Example 206]
Second: OC(COC(F)(F)C(F)F)CN(Cc1cccc(OC(F)(F)C(F)F)c1)c1cccc(Oc2ccccc2)c1 (stereo not shown) [Example 212]
The IC50 of the first is higher: over 100 µM for the first, 1.8 µM for the second.
